# Source: PubChem BioAssay (NCI)
# “And” between values parts separate entries of the source, which are not always exact repeats. Equal values may be shown once.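 Results reflect a 48-hour exposure of cells in 96-well plates to compound at five concentrations. At the GI50, growth is halved. The concentration for full growth arrest is given as TGI.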
# Legend:
# Test in all cases: NCI anticancer screen, dose series, 48 h
# MDA-N = system: MDA-N
# RXF 393 renal = system: RXF 393 renal
# K-562 leukemia = system: K-562 leukemia
# A549 NSCLC = system: A549 NSCLC
# HL-60(TB) leukemia = system: HL-60(TB) leukemia
# NCI/ADR-RES ovarian = system: NCI/ADR-RES ovarian
# SK-MEL-28 melanoma = system: SK-MEL-28 melanoma
# OVCAR-4 ovarian = system: OVCAR-4 ovarian
# HCT-116 colon = system: HCT-116 colon
# UACC-62 melanoma = system: UACC-62 melanoma
SMILES,TGI (MDA-N),TGI (RXF 393 renal),TGI (K-562 leukemia),TGI (A549 NSCLC),TGI (HL-60(TB) leukemia),TGI (NCI/ADR-RES ovarian),TGI (SK-MEL-28 melanoma),TGI (OVCAR-4 ovarian),TGI (HCT-116 colon),TGI (UACC-62 melanoma),GI50 (RXF 393 renal),GI50 (K-562 leukemia),GI50 (A549 NSCLC),GI50 (HL-60(TB) leukemia),GI50 (NCI/ADR-RES ovarian),GI50 (SK-MEL-28 melanoma),GI50 (MDA-N),GI50 (HCT-116 colon)
COc1ccc(C(SC2C(O)C(CO)OC2n2ccc(=O)[nH]c2=O)(c2ccccc2)c2ccc(OC)cc2)cc1 (stereo not given),26.1 µM,32.4 µM,> 100 µM,45.4 µM,68.4 µM,47.1 µM,53.9 µM,64.9 µM,29.2 µM,33.3 µM,,,,,,,,
CC(C)(C)n1c(=O)[nH]c(=O)n1C(C)(C)C,> 100 µM,> 100 µM,> 100 µM,> 100 µM,> 100 µM,> 100 µM,> 100 µM,> 100 µM,> 100 µM,> 100 µM,,,,,,,,
CN(C)CCCNc1ccc2nnn3c4ccc(O)cc4c(=O)c1c23,19.9 µM,1.16 µM,> 57.2 µM,16.9 µM,> 46.9 µM,21.8 µM,22.5 µM,18.5 µM,16 µM,23.7 µM,,,,,,,,
Cc1ccc(S(=O)(=O)Nn2c(O)c(C#N)c(-c3ccc(Cl)cc3)c(C#N)c2=O)cc1,> 100 µM,> 100 µM,> 100 µM,> 100 µM,> 100 µM,> 100 µM,> 100 µM,> 100 µM,> 100 µM,> 100 µM,,,,,,,,
C=CC[n+]1c2ccccc2n2cc([N+](=O)[O-])ccc21,50.7 µM,> 100 µM,59.2 µM,> 100 µM,50.3 µM,> 100 µM,89.9 µM,> 100 µM,78.7 µM,74.9 µM,,,,,,,,
O=[N+]([O-])c1cccc(N=Nc2c(O)c(S(=O)(=O)O)cc3cc(S(=O)(=O)O)ccc23)c1,> 100 µM,> 100 µM,> 100 µM,> 100 µM,> 100 µM,> 100 µM,> 100 µM,> 100 µM,> 100 µM,> 100 µM,,,,,,,,
O=C1CC(=O)n2cnc3cccc(c32)N1,> 100 µM,> 100 µM,> 100 µM,> 100 µM,> 100 µM,> 100 µM,> 100 µM,> 100 µM,> 100 µM,> 100 µM,,,,,,,,
C/C(=N\Nc1nc2cc(C(F)(F)F)ccc2s1)c1ccccn1,14.7 µM,12.5 µM,> 100 µM,,0.872 µM,1.48 µM,5.74 µM,32.6 µM,2.98 µM,3.38 µM,,,,,,,,
COc1cc(C2C(Cl)C(=O)N2c2c(C)n(C)n(-c3ccccc3)c2=O)ccc1O (stereo not given),32.6 µM,33.6 µM,> 100 µM,61.9 µM,64.1 µM,75.8 µM,,37.6 µM,19.3 µM,29.7 µM,,,,,,,,
CC(C)(C)CC(C)(C)c1cc(O)c(O)c(CN2CCCCC2)c1,28.3 µM,29.2 µM,19.3 µM,30.8 µM,31.6 µM,19 µM,32.8 µM,42 µM,29.5 µM,29.8 µM,,,,,,,,
C=C=C(CC(CC(=C)Br)(C(=O)OC)C(=O)OC)S(=O)(=O)c1ccccc1,8.58 µM,3.99 µM,> 100 µM,10.6 µM,> 100 µM,5.96 µM,3.23 µM,21.2 µM,2.22 µM,3.11 µM,,,,,,,,
N#Cc1cc2c(n(C3OC(CO)C(O)C(O)C3O)c1=S)CCCCCC2 (stereo not given),> 100 µM,> 100 µM,> 100 µM,> 100 µM,> 100 µM,> 100 µM,> 100 µM,> 100 µM,> 100 µM,> 100 µM,,,,,,,,
CC1=C2C(=CO[C@H](C)[C@H]2C)C(=O)C(C(=O)O)=C1O,72.2 µM,35.8 µM and 48.4 µM,54.8 µM,142 µM and > 88.1 µM,59 µM and 25.7 µM,79.4 µM and 152 µM,93.5 µM and 54.9 µM,> 80.5 µM and 87.5 µM,82.2 µM and 78.5 µM,85.6 µM and 40.4 µM,21.9 µM,36.9 µM,31.1 µM,25.3 µM,26.9 µM,23.9 µM,,
O=C1OC[C@H]2[C@@H]1[C@H]1O[C@@H]2C2=C(CCC2)C1=O,> 100 µM,> 100 µM,> 100 µM,> 100 µM,> 100 µM,> 100 µM,> 100 µM,> 100 µM,> 100 µM,> 100 µM,,,,,,,,
Nc1ccc(S(=O)(=O)Nc2nc3ccccc3nc2N2CCCCCC2)cc1,> 100 µM,35.5 µM,52 µM,> 100 µM,52 µM,> 100 µM,39.4 µM,50.9 µM,33.2 µM,39.8 µM,,,,,,,,
CC(Oc1ccccc1Cl)C(=O)NN1C(=O)CSC1c1ccccc1 (stereo not given),> 100 µM,> 100 µM,> 100 µM,> 100 µM,83.7 µM,> 100 µM,> 100 µM,> 100 µM,> 100 µM,> 100 µM,,,,,,,,
O=C(Cc1ccc(Cl)c(Cl)c1)NCC1(N2CCCCC2)CCCCC1,> 100 µM,53 µM,> 100 µM,> 100 µM,> 100 µM,> 100 µM,,> 100 µM,> 100 µM,42 µM,,,,,,,,

SMILES,TGI (MDA-N),TGI (RXF 393 renal),TGI (K-562 leukemia),TGI (A549 NSCLC),TGI (HL-60(TB) leukemia),TGI (NCI/ADR-RES ovarian),TGI (SK-MEL-28 melanoma),TGI (OVCAR-4 ovarian),TGI (HCT-116 colon),TGI (UACC-62 melanoma),GI50 (RXF 393 renal),GI50 (K-562 leukemia),GI50 (A549 NSCLC),GI50 (HL-60(TB) leukemia),GI50 (NCI/ADR-RES ovarian),GI50 (SK-MEL-28 melanoma),GI50 (MDA-N),GI50 (HCT-116 colon)
O=C(Nn1c(-c2ccccc2)nc2ccccc2c1=O)c1ccccc1O,> 100 µM,> 100 µM,> 100 µM,> 100 µM,> 100 µM,> 100 µM,> 100 µM,> 100 µM,> 100 µM,77.2 µM,,,,,,,,
Cc1cc2c([nH]c3ccccc32)c(O)c1-c1c(C)cc2c([nH]c3ccccc32)c1O,27.8 µM,23.1 µM,25.9 µM,26.8 µM,55 µM,29.4 µM,55 µM,28.8 µM,27.2 µM,,,12.3 µM,,32.9 µM,,,14.7 µM,
O=c1[nH]n(Cc2ccccc2)c2ccc([N+](=O)[O-])cc12,99.6 µM,> 100 µM,> 100 µM,> 100 µM,> 100 µM,> 100 µM,> 100 µM,> 100 µM,> 100 µM,> 100 µM,,,,,,,,
COc1cc(C2c3cc4c(cc3C3OC[C@@H]2C3CO)OCO4)cc(OC)c1OC (stereo not given in full),36.1 µM,> 100 µM,> 100 µM,> 100 µM,18.7 µM,39.3 µM,> 100 µM,> 100 µM,> 100 µM,,,,,,,,,30.3 µM
NN=C(CC(O)(C(F)(F)Cl)C(F)(F)Cl)CC(O)(C(F)(F)Cl)C(F)(F)Cl,> 10 µM,> 10 µM,> 10 µM,> 10 µM,> 10 µM,> 10 µM,> 10 µM,> 10 µM,> 10 µM,> 10 µM,,,,,,,,
C/C(=N\Nc1nc2ccccc2n1C)c1cc2ccccc2cn1,16.6 µM,7.7 µM,> 100 µM,27.1 µM,1.41 µM,1.55 µM,16.6 µM,13 µM,5.83 µM,0.94 µM,,,,,,,,
CN(C)Cc1cc(C(=O)/C=C/c2ccccc2)cc(CN(C)C)c1O,35.7 µM,71.8 µM,36.8 µM,68.9 µM,42.3 µM,> 100 µM,> 100 µM,> 100 µM,87.8 µM,,,,,,,,,
CCc1cc2c(c3c1CCCC3=O)CC1(Cc3ccc(C(=O)OC)cc3C1)C2 (stereo not given),> 100 µM,> 100 µM,> 100 µM,> 100 µM,55.4 µM,> 100 µM,> 100 µM,> 100 µM,> 100 µM,,,,,,,,,
CC(=O)NC1C(OCc2ccccc2)OC(CO)C(O)C1OC(C)C(=O)NC(C(=O)NC(CCC(=O)NCCCCNc1c2ccccc2nc2cccc([N+](=O)[O-])c12)C(N)=O)C(C)C (stereo not given),3.67 µM,3.56 µM,> 100 µM,7.77 µM,6.77 µM,> 100 µM,7.19 µM,3.97 µM,10.5 µM,5.03 µM,,,,,,,,
CN1C(=O)C(O)C[C@@H]1c1ccccc1 (stereo not given in full),> 100 µM,> 100 µM,,> 100 µM,> 100 µM,> 100 µM,> 100 µM,> 100 µM,> 100 µM,> 100 µM,,,,,,,,
CC(C)/C(Cl)=N\OC(NC(=O)P(=O)(c1ccccc1)c1ccccc1)(C(F)(F)F)C(F)(F)F,63.8 µM,34 µM,23.8 µM,42.8 µM,30.9 µM,42.2 µM,28.2 µM,25.1 µM,21.5 µM,49 µM,,,,,,,,
O=C(c1cccs1)N1CCN(C(=O)c2cccs2)C1=S,14.8 µM,10.5 µM,> 45.2 µM,19.8 µM,5.2 µM,59 µM,19.2 µM,32.3 µM,21.7 µM,16.6 µM,,,,,,,,
Cc1c(C(=O)OCc2ccccc2)[n+](=O)c2cc(Cl)c(Cl)cc2n1[O-],40.7 µM,36 µM,57.6 µM,28 µM,27.3 µM,48.4 µM,64.8 µM,26.9 µM,27.2 µM,31 µM,,,,,,,,
COc1ccc(Nc2ccc3ccccc3c2-c2c(O)ccc3ccccc23)cc1,29.4 µM,49.8 µM,54.4 µM,,55.2 µM,36.5 µM,31.7 µM,41.9 µM,40.5 µM,> 100 µM,,,,,,,,
CCOC(=O)c1cc2c([N+](=O)[O-])c(N)ccc2s1,> 100 µM,> 100 µM,> 100 µM,> 100 µM,> 100 µM,> 100 µM,> 100 µM,> 100 µM,> 100 µM,> 100 µM,,,,,,,,
COC(=O)C1C(=O)N(C)C(=O)N2CCCC12 (stereo not given),> 100 µM,> 100 µM,> 100 µM,> 100 µM,> 100 µM,> 100 µM,> 100 µM,> 100 µM,,> 100 µM,,,,,,,,
NCC(O)CSCc1ccc(Cl)cc1 (stereo not given),> 100 µM,> 100 µM,> 100 µM,> 100 µM,> 100 µM,> 100 µM,> 100 µM,> 100 µM,> 100 µM,> 100 µM,,,,,,,,
